# Test results: US3974187A, “Synthetic analogs having the activity of naturally occurring forms of coenzyme Q” (priority 1975, dated 1976)
# Key:
# [1] = system: nutritionally dystrophic rabbit; settings: Farley et al. 1968; intravenous administration; cited from earlier work
# [2] = literature / general knowledge; cited from earlier work
# [3] = system: oxidative phosphorylation at site I (ETPH particles); assay: Assay of CoQ and analogs for oxidative phosphorylation at site I with ETPH particles; format: biochemical; design: Δ NADH / Δ G6P: unit not given here; settings: for biochemical effectiveness in the site I assay system: compared with CoQ1; for P/NADH Ratio / Δ G6P / Δ NADH / μmoles NADH /min/mg / μmoles NADH min/mg +Rotenone / % Inhibition by Rotenone: CoQ or analog 0.12 nM (footnote 0.12 mM); for μmoles NADH /min/mg: 200 μg ETPH particles, no rotenone; for μmoles NADH min/mg +Rotenone / % Inhibition by Rotenone: rotenone 2 μM
# Method: Assays were performed with 200 μg of ETPH particles as described by
# Schatz and Racker (J. Biol. Chem., 241, 1429 (1966)). The concentration o
# the CoQ compounds was 0.12 mM. Rotenone was added at 2 μM
# [4] = Solubility in water; format: physicochemical; settings: in the site I assay system
# [5] = system: succinoxidase system of beef heart mitochondria; assay: CoQ activity: restoring succinoxidase activity of pentane-extracted beef heart mitochondria (manometric); format: biochemical; design: key to CoQ10 Act. Index: activity index relative to CoQ10 standard; settings: for Activation at 400 nMoles %: 400 nmoles of analog, relative to the response to 400 nmoles CoQ10; for Maximum Activation: 400 nm of analog per flask, percent of the response to CoQ4; for CoQ10 Act. Index: calculated from relative effectiveness, activity in terms of that of CoQ10; for effectiveness / utilization in the succinoxidase mitochondrial system: interpretation of Table II; for Estimated nMoles Required for 50% Activation: level required to reinstate approximately 50% of maximum succinoxidase activity, 0.65-0.85 mg PEBHM; for Relative Effectiveness: molar amounts of analog and CoQ4 required to restore the same level of succinoxidase to PEBHM, relative to CoQ4
# Method: The CoQ activity of each analog was assessed by examining the ability of the analog to stimulate the succinoxidase activity of beef-heart mitochondria (BHM) from which the naturally occurring CoQ had been removed by pentane extraction. (Table I) Beef heart mitochondria were prepared by the method of Smith (Methods Enzymol., 10, 81 (1967). The pentane extraction was conducted as described by Szarkowska (Arch. Biochem. Biophys., 113, 519 (1966); PEBHM was frozen and used within 10 days of preparation, since pentane extraction decreases the stability of BHM. Succinoxidase activity was determined manometercally, using a Gilson differential respirometer (Iwamoto, Y., Hansen, I. L., Porter, T. H., and Folkers, K., Biochem. Biophys. Res. Comm., 58, 633 (1974), and is reported as […] of oxygen per minute per milligram of protein. A commercial soybean phospholipid preparation (Asolectin), dispersed by sonication (Fleischer, S. and Fleischer, B., Methods Enzymol., 10, 421 (1967), was used to provide phospholipid micelles, and test substances were added as solutions in ethanol. Within Table I are listed the CoQ activities of the analogs and selected reference compounds. The CoQ10 Activity Index is a measure of the effectiveness of the analogs, relative to the standard, in stimulating a submaximal response of succinoxidase activity. Specific activity of the succinoxidase system in response to stimulation by exogenous CoQ10 is given in footnote a of the Table. The quantity of analog to be added was chosen to provide a level of succinoxidase activity corresponding to the nearly linear portion of the activity: dose curve, in which succinoxidase activity stimulated is approximately proportional to the level of analog used. The second column lists the nanomolar quantity of analog required to provide a stimulation of about half of the maximum response. The relative response of the succinoxidase system to 400 nmol of each analog is listed in the third column of the Table. This level of analog is sufficient to insure significant excess over the stoichiometric amount, and maximum response to CoQ4 is obtained at one-tenth to one-twentieth of this dose level. The response to 400 nmol of CoQ10 is lower than is the response to other components listed. The very long side-chain of CoQ10, the natural coenzyme, may hinder the transport of exogenous CoQ10 to the active site.
# [6] = system: nutritionally deficient children who were anemic; settings: Majaj and Folkers 1968; cited from earlier work
# [7] = human; cited from earlier work
# [8] = target: complex III (Bos taurus, UniProt P00157+P13272); assay: Reduction of cytochrome c by reduced CoQ and analogs catalyzed by complex III; format: biochemical; settings: for nMoles Cytochrome c Reduced/min / Non-enzymatic Rate of Cytochrome c Reduction: 10 μM reduced CoQ or analog; for nMoles Cytochrome c Reduced/min: 2 μg complex III, 8 μM cytochrome c; for Non-enzymatic Rate of Cytochrome c Reduction: blank without complex III; for response of complex III system to the reduced analog as substrate: after reduction and extraction; for % Inhibition by Antimycin A: antimycin A 1 μg/ml
# Method: Reduction of cytochrome c was measured at 550-540 nm. The reaction mixtur
# contained in 1.0 ml: […] KP1, pH 7.5; 0.05 mM EDTA; 8 μM
# cytochrome c1; 10 μM reduced CoQ or analog and 2 μg complex
# III. When indicated, antimycin A was added to the assay medium at 1
# μg/ml. An extinction coefficient of 19 mM^-^1 was used for […]
# [9] = Chemical stability; format: physicochemical; settings: compared with CoQ1 and CoQ2
# [10] = system: periodontal disease; settings: Matsummura et al. 1973; cited from earlier work
solubility in water [4],Activation at 400 nMoles % [5] [%],Maximum Activation [5] [%],CoQ10 Act. Index [5],Estimated nMoles Required for 50% Activation [5] [nmol],Relative Effectiveness [5] [%],response of complex III system to the reduced analog as substrate [8],Structure (SMILES),biochemical effectiveness in the site I assay system [3],effectiveness / utilization in the succinoxidase mitochondrial system [5],also measured
–,123,96,11.7,3.6,56,excellent substrates,"CCCCCCCCCCC1=C(C)C(=O)C(OC)=C(OC)C1=O [Decyl, 2,3-Dimethoxy-5-methyl-6-decyl-1,4-benzoquinone]",as biochemically effective as CoQ1,effective,nMoles Cytochrome c Reduced/min [8]: 29.0 nmol/min; Non-enzymatic Rate of Cytochrome c Reduction [8]: 0.2 nmol/min; % Inhibition by Antimycin A [8]: 98%; P/NADH Ratio [3]: 0.46; Δ G6P [3]: 0.039; Δ NADH [3]: 0.085; μmoles NADH /min/mg [3]: 0.52 μmoles NADH /min/mg; μmoles NADH min/mg +Rotenone [3]: 0 μmoles NADH min/mg; % Inhibition by Rotenone [3]: 100%; chemical stability ([9]; listed as 6-n-decyl): superior to CoQ1 and CoQ2 in chemical stability; chemical stability ([9]; listed as DB): apparent greater stability
lower solubility in water,121,94,4.4,9.5,21,virtually unresponsive,"CCCCCCCCCCCCCCCC1=C(C)C(=O)C(OC)=C(OC)C1=O [Pentadecyl, 2,3-Dimethoxy-5-methyl-6-pentadecyl-1,4-benzoquinone]",not suitable or as effective,–,inhibition of complex III system [8]: no inhibition

# More lines, now with the values behind:
Structure (SMILES),solubility in water [4],Activation at 400 nMoles % [5] [%],Maximum Activation [5] [%],CoQ10 Act. Index [5],Estimated nMoles Required for 50% Activation [5] [nmol],Relative Effectiveness [5] [%],response of complex III system to the reduced analog as substrate [8],biochemical effectiveness in the site I assay system [3],effectiveness / utilization in the succinoxidase mitochondrial system [5],also measured
"COC1=C(OC)C(=O)C(C/C=C(\C)CC/C=C(\C)CCC=C(C)C)=C(C)C1=O [CoQ3, coenzyme Q3]",–,–,–,–,–,–,–,–,–,"therapeutic activity, saving the life of the dying dystrophic rabbit [1]: did not save the life of the dying dystrophic rabbit; chemical stability of isoprenoid quinones [2]: relative chemical instability"
"COC1=C(OC)C(=O)C(C/C=C(\C)CC/C=C(\C)CC/C=C(\C)CC/C=C(\C)CC/C=C(\C)CCC=C(C)C)=C(C)C1=O [CoQ6, reference compound]",somewhat more soluble,–,–,–,–,–,–,not adequate,–,–
"COC1=C(OC)C(=O)C(C/C=C(\C)CC/C=C(\C)CC/C=C(\C)CC/C=C(\C)CC/C=C(\C)CC/C=C(\C)CC/C=C(\C)CC/C=C(\C)CC/C=C(\C)CCC=C(C)C)=C(C)C1=O [CoQ10, coenzyme Q10, reference compound]",too insoluble,100,78,1.0,41.7,4.8,–,–,poorly utilized,"therapeutic activity, saving the life of the dying dystrophic rabbit [1]: failed to elicit therapeutic activity; Specific Activity of the enzyme system ([5]; 10 nmoles CoQ10/flask): 0.160 μatm O2 /mg protein min; Specific Activity of the enzyme system ([5]; 20 nmoles CoQ10/flask): 0.248 μatm O2 /mg protein min; Specific Activity of the enzyme system ([5]; 30 nmoles CoQ10/flask): 0.298 μatm O2 /mg protein min; Specific Activity of the enzyme system ([5]; 40 nmoles CoQ10/flask): 0.344 μatm O2 /mg protein min; Specific Activity of the enzyme system ([5]; 100 nmoles CoQ10/flask): 0.488 μatm O2 /mg protein min; Activation at 3.46 nMoles ([5]; 3.46 (nMoles) CoQ10): no activation; hematological activity [6]: showed hematological activity; oral absorption [7]: inefficient"
"COC1=C(OC)C(=O)C(C/C=C(\C)CCCC(C)CCCC(C)CCCC(C)C)=C(C)C1=O (centres unmarked) [H6 CoQ4, hexahydrocoenzyme Q4, reference compound]",–,121,95,2.2,19.4,10.3,–,–,–,treatment of periodontal disease [10]: enhanced treatment of periodontal disease; hematological activity [6]: showed hematological activity
"CCCCCC1=C(C)C(=O)C(OC)=C(OC)C1=O [Pentyl, 2,3-Dimethoxy-5-methyl-6-pentyl-1,4-benzoquinone]",–,110,86,1.2,35.1,5.7,excellent substrates,as biochemically effective as CoQ1,about as little effective as coenzyme Q10 itself,nMoles Cytochrome c Reduced/min [8]: 14.6 nmol/min; Non-enzymatic Rate of Cytochrome c Reduction [8]: 0.2 nmol/min; % Inhibition by Antimycin A [8]: 100%; P/NADH Ratio [3]: 0.44; Δ G6P [3]: 0.036; Δ NADH [3]: 0.082; μmoles NADH /min/mg [3]: 0.47 μmoles NADH /min/mg; μmoles NADH min/mg +Rotenone [3]: 0.02 μmoles NADH min/mg; % Inhibition by Rotenone [3]: 95%; chemical stability ([9]; listed as 6-n-pentyl): superior to CoQ1 and CoQ2 in chemical stability; chemical stability ([9]; listed as PB): apparent greater stability
